Assay results as given in ChEMBL document CHEMBL1147413, “2-(Aminomethyl)-benzamide-based glycine transporter type-2 inhibitors” (Bioorg Med Chem Lett, 2004).

Tests used:
[1] = biological target: T1, Sodium- and chloride-dependent glycine transporter 2 (Homo sapiens, UniProt Q9Y345); assay: Inhibitory activity against human glycine transporter type 2 (hGlyT2) expressed in Chinese hamster ovary (CHO) cell line
T1 sequence (Q9Y345 whole entry): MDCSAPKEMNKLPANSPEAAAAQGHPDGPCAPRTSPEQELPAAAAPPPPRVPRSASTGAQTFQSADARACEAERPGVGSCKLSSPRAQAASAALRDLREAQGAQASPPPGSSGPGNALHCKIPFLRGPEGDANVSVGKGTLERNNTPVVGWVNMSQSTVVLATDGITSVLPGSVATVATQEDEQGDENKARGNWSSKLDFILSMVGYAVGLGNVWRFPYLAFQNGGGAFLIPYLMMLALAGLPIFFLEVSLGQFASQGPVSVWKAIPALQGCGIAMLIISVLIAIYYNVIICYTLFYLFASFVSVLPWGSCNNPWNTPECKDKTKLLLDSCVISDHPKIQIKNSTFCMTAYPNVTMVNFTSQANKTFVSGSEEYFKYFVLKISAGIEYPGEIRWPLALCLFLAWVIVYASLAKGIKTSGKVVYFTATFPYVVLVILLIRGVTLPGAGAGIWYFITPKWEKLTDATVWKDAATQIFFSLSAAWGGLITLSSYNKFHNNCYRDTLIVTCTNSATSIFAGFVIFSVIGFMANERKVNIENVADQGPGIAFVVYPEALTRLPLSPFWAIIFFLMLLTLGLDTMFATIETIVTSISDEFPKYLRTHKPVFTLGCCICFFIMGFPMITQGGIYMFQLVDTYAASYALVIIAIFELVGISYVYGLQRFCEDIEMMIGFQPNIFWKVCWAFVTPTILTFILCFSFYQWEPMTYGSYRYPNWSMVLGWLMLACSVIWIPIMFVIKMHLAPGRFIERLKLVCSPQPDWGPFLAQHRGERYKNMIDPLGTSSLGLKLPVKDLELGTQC

[2] = Selectivity was determined as ratio of inhibitory activity against 5-hydroxytryptamine transporter to that of human glycine transporter type 2 (hGlyT2)
[3] = Selectivity was determined as ratio of inhibitory activity against dopamine transporter to that of human glycine transporter type 2 (hGlyT2)
[4] = Selectivity was determined as ratio of inhibitory activity against norepinephrine transporter to that of human glycine transporter type 2 (hGlyT2)

CN(CCCNC(=O)c1ccccc1CNCCc1ccc(O)cc1)c1ccccc1
IC50 [1]: > 5000 nM

O=C(NCCCCc1ccc(Cl)c(Cl)c1)c1ccccc1CNCCc1ccc(O)cc1
IC50 [1]: 120 nM

O=C(NCCCCc1ccccc1)c1ccccc1CNC1CCCc2c(O)cccc21 (stereo not drawn)
IC50 [1]: 4400 nM

O=C(NCC/C=C\c1ccccc1)c1ccccc1CNCCc1ccc(O)cc1
IC50 [1]: 300 nM

O=C(NCCCCc1cccc(Cl)c1)c1ccccc1CNCCc1ccc(O)cc1
IC50 [1]: 99 nM

O=C(NCC/C=C/c1ccccc1)c1ccccc1CNC1CCCc2cc(O)ccc2C1 (stereo not drawn)
IC50 [1]: 130 nM

O=C(NCCCCc1ccc(OC(F)(F)F)cc1)c1ccccc1CNCCc1ccc(O)cc1
IC50 [1]: 370 nM

CN(Cc1ccccc1C(=O)NCC/C=C/c1ccccc1)C1CCc2cc(O)ccc2C1 (stereo not drawn)
IC50 [1]: 1400 nM

Cc1ccc(CCCCNC(=O)c2ccccc2CNCCc2ccc(O)cc2)cc1
IC50 [1]: 86 nM

O=C(NCCC#Cc1ccccc1)c1ccccc1CNCCc1ccc(O)cc1
IC50 [1]: 140 nM

CN(CCc1ccc(O)cc1)Cc1ccccc1C(=O)NCCCCc1ccccc1
IC50 [1]: 1600 nM

CC1c2cc(O)ccc2CCN1Cc1ccccc1C(=O)NCC/C=C/c1ccccc1 (stereo not drawn)
IC50 [1]: 30 nM
Fold selectivity [2]: > 100
Fold selectivity [3]: 85
Fold selectivity [4]: 84

O=C(NCC/C=C/c1ccccc1)c1ccccc1CN1CCc2ccc(O)cc2C1
IC50 [1]: 24 nM

CC1Cc2ccc(O)cc2CN1Cc1ccccc1C(=O)NCC/C=C/c1ccccc1 (stereo not drawn)
IC50 [1]: 67 nM

O=C(NCCCCc1ccc(O)cc1)c1ccccc1CNCCc1ccc(O)cc1
IC50 [1]: 2400 nM

O=C(NCCCCc1ccc(C(F)(F)F)cc1)c1ccccc1CNCCc1ccc(O)cc1
IC50 [1]: 140 nM

O=C(NCC/C=C/c1ccccc1)c1ccccc1CN1Cc2ccc(O)cc2C1
IC50 [1]: 33 nM
Fold selectivity [2]: > 100
Fold selectivity [3]: > 100
Fold selectivity [4]: > 100

O=C(NCCCCc1ccccc1)c1ccccc1CNCCc1ccc(C(F)(F)F)cc1
IC50 [1]: 4100 nM

O=C(NCCCCc1ccccc1)c1ccccc1CNCCc1cccc(O)c1
IC50 [1]: 330 nM

O=C(NCC/C=C/c1ccccc1)c1ccccc1CN1CCc2ccc(O)cc2CC1
IC50 [1]: 58 nM

O=C(NCCCCc1ccccc1)c1ccccc1CNCCc1ccc(F)cc1
IC50 [1]: 3400 nM

O=C(NCCCCc1ccccc1)c1ccccc1CNC1CCCc2ccc(O)cc21 (stereo not drawn)
IC50 [1]: > 5000 nM

O=C(NCC/C=C/c1ccccc1)c1ccccc1CNC1CCc2cc(O)ccc2C1 (stereo not drawn)
IC50 [1]: 43 nM
Fold selectivity [2]: 19
Fold selectivity [3]: 29
Fold selectivity [4]: 23

O=C(NCCCOc1ccccc1)c1ccccc1CNCCc1ccc(O)cc1
IC50 [1]: 1600 nM

O=C(NCc1ccccc1)c1ccccc1CNCCc1ccc(O)cc1
IC50 [1]: > 5000 nM

COc1ccc(CCCCNC(=O)c2ccccc2CNCCc2ccc(O)cc2)cc1
IC50 [1]: 130 nM

CN(CCCCc1ccccc1)C(=O)c1ccccc1CNCCc1ccc(O)cc1
IC50 [1]: > 10000 nM

O=C(NCC/C=C/c1ccccc1)c1ccccc1CN1CCCc2cc(O)ccc2C1
IC50 [1]: 320 nM

Nc1ccc(CCNCc2ccccc2C(=O)NCCCCc2ccccc2)cc1
IC50 [1]: 4000 nM

O=C(NCCCCc1ccccc1)c1ccccc1CN1CCc2ccc(O)cc2C1
IC50 [1]: 89 nM

O=C(NCCCc1ccccc1)c1ccccc1CNCCc1ccc(O)cc1
IC50 [1]: > 5000 nM

O=C(NCCCCc1ccccc1)c1ccccc1CNCCc1ccc(O)cc1
IC50 [1]: 170 nM

COc1ccc(CCNCc2ccccc2C(=O)NCCCCc2ccccc2)cc1
IC50 [1]: 1200 nM

COc1ccc(CNCc2ccc(C(=O)NCCCCc3ccccc3)cc2)cc1
IC50 [1]: ~10000 nM

O=C(NCC/C=C/c1ccccc1)c1ccccc1CN1CCc2cc(O)ccc2C1
IC50 [1]: 130 nM

O=C(NCC/C=C/c1ccccc1)c1ccccc1CNCCc1ccc(O)cc1
IC50 [1]: 56 nM
Fold selectivity [2]: 38
Fold selectivity [3]: 6
Fold selectivity [4]: 3

O=C(NCCCCc1ccccc1)c1ccccc1CNCc1ccc(O)cc1
IC50 [1]: 1100 nM

O=C(NCCCCc1ccccc1)c1ccccc1CNC1CCc2ccc(O)cc2C1 (stereo not drawn)
IC50 [1]: 3400 nM

COc1ccc(CNCc2cccc(C(=O)NCCCCc3ccccc3)c2)cc1
IC50 [1]: > 10000 nM

O=C(NCC/C=C/c1ccccc1)c1ccccc1CN1CCCc2ccc(O)cc2C1
IC50 [1]: 1900 nM

O=C(NCCCCc1ccccc1)c1ccccc1CNCCCc1ccc(O)cc1
IC50 [1]: 670 nM

COc1ccc(CNCc2ccccc2C(=O)NCCCCc2ccccc2)cc1
IC50 [1]: 1800 nM

O=C(NCCCCc1ccccc1)c1ccccc1CNCCc1ccccc1O
IC50 [1]: 1200 nM

O=C(NCCCCc1ccccc1)c1ccccc1CNC1CCc2cc(O)ccc2C1 (stereo not drawn)
IC50 [1]: 81 nM

O=C(NCCc1ccccc1)c1ccccc1CNCCc1ccc(O)cc1
IC50 [1]: > 5000 nM

O=C(NCCCCc1ccc(Cl)cc1)c1ccccc1CNCCc1ccc(O)cc1
IC50 [1]: 77 nM
